Data: patent publication US11679107B2 (Eisai R&D Management Co., Ltd., priority 2018, dated 2023)
Like-named read-outs stand apart in the source and are kept apart here.

Experiments:
[1] = tested on: Ad2 variant pre-mRNAs spliced in HeLa S3 nuclear extracts; assay: In vitro splicing assay (IVS), RT-qPCR of spliced product; assay type: biochemical; settings: for IC50: geometric mean; for Ratio Ad2.1/2.2: ratio of IVS IC50 Ad2.1 to Ad2.2
Method: (§1) Batch immobilization of anti-SF3B1 antibody (MBL) to anti-mouse PVT SPA scintillation beads (PerkinElmer) was prepared as follows: for every 2.5 mg of nuclear extracts, 5 μg anti-SF3B1 antibody and 1.5 mg of beads were mixed in 150 μl PBS. The antibody-bead mixture was incubated for 30 min at RT and centrifuged at 18,000 g for 5 min. 150 μl PBS was used to resuspend every 1.5 mg antibody-bead mixture. The beads were suspended and added to the prepared nuclear extracts. The slurry was incubated for 2 h at 4° C. with gentle mixing. The beads were then collected by centrifuging at 18,000 g for 5 min, and washed twice with PBS+0.1% Triton X-100. After a final centrifugation step, every 1.5 mg of beads was suspended with 150 μl of PBS. The SF3b complexes were tested for [^3H]-labelled pladienolide probe binding ([^3H]—PB), synthesized as previously described (Kotake et al., 2007). 100 μl binding reactions were prepared with 50 μl bead slurry and by adding varying concentrations of PB or PB—OH, and after 30 min pre-incubation, 2.5 nM [^3H]—PB was added. The mixture was incubated for 30 min, and luminescence signals were read using a MicroBeta2 Plate Counter (PerkinElmer). Prism 6 (Graphpad) was used for non-linear regression curve fitting of the data. • a. • b. HeLa nuclear extract preparation (for in vitro splicing modulation assay below) • c. HeLa S3 cell pellets were resuspended in hypotonic buffer (10 mM HEPES pH 7.9, 1.5 mM MgCl2, 10 mM KCl, 0.2 mM PMSF, and 0.5 mM DTT) and the suspension was brought up to a total of 5 packed cell volume (PCV). After centrifugation, the supernatant was discarded, and the cells were brought up to 3 PCV with hypotonic buffer and incubated on ice for 10 minutes. Cells were lysed using a dounce homogenizer and then centrifuged. The supernatant was discarded, and the pellet was resuspended with ½ packed nuclear volume (PNV) of low salt buffer (20 mM HEPES pH 7.9, 1.5 mM MgCl2, 20 mM KCl, 0.2 mM EDTA, 25% glycerol, 0.2 mM PMSF, 0.5 mM DTT), followed by ½ PNV of high salt buffer (same as low salt buffer except 1.4 M KCl was used). The nuclei were gently mixed for 30 minutes before centrifuging. The supernatant (nuclear extract) was then dialyzed into storage buffer (20 mM HEPES pH 7.9, 100 mM KCl, 0.2 mM EDTA, 20% glycerol, 0.2 mM PMSF, 0.5 mM DTT). Protein concentration was determined using NanoDrop 8000 UV-Vis spectrophotometer (ThermoFisher Scientific). • d. In vitro splicing assay (IVS)
All Ad2-derived (Pellizzoni et al., 1998) sequences were cloned into pcDNA3.1(+) vector (Promega) using 5′ EcoRI and 3′ XbaI restriction sites. The plasmids were linearized using XbaI and used as DNA templates in the in vitro transcription reactions. The FtzΔi intron-less plasmid (Luo and Reed, 1999) was linearized using EcoRI. All RNAs were in vitro transcribed and then purified using MEGAScript T7 (Invitrogen) and MegaClear (Invitrogen) kits, respectively. For splicing reactions using Ad2 variant pre-mRNAs, […] reactions were prepared using 8 μg nuclear extracts prepared from HeLa S3, 2 ng pre-mRNA, 0.2 ng FTZΔi, and varying concentrations of exemplary payloads or DMSO. After a 15 minute pre-incubation at 30° C., 1 μL splicing activation buffer (0.5 mM ATP, 20 mM creatine phosphate, 1.6 mM MgCl2) was added, and the reactions were incubated for 90 minutes at 30° C. The reactions were then quenched with 13 μL it DMSO, and 25 nL was used for RT-qPCR. RT-qPCR reactions were prepared using TaqMan RNA-to-CT 1-step kit (Life Technologies), RNA from splicing reactions, Ad2 (forward: […]; reverse: […]; probe: […]) and Ftz (forward: […]; reverse: […]; probe: […]) mRNA primer-probe sets. Prism 6 (Graphpad) was used for non-linear regression curve fitting of the formed spliced product and normalized to the control (DMSO) sample.

[2] = tested on: NCI-H1568 cells (high MCL1); assay: Cell proliferation and viability, CellTiter-Glo, 72 hours; assay type: cell-based; settings: for GI50: geometric mean
Method: (§2) Cell lines were maintained in RPMI-1640 (ATCC 30-2001) supplemented with 10% fetal bovine serum (FBS). The Panc lines were supplemented in addition with insulin and FBS up to 15% total.
(§3) Compounds for assay were prepared as stocks in 90% dimethyl sulfoxide (DMSO), assessed for purity by LC/MS, and serially diluted in DMSO using a low-volume liquid handler (VIAFLO ASSIST and VIAFLO II electronic 16-channel pipette, 0.5-12.5 μL) in an 11-point half-log serial dilution to create a master dose response (MDR) source used for all tests.
(§4) Transfer of compounds from the MDR source plate to cell assay-ready plates were accomplished directly by low-energy acoustic transfer (ATS100, EDC Biosystems). After transfer of compounds to the assay plate, the dose-response range experienced by cells was typically 10 μM-100 pM (5 logs), and final DMSO concentration in the assay was 0.1%, uniformly. Each assay plate was self-anchored containing vehicle/DMSO negative controls, medium-only/positive controls, and cidal control dose-responses of bortezomib and staurosporine. Assay-ready plates were heat-sealed and stored at −20° C. until used, no longer than one month.
(§5) A DMSO-matched time zero (T0) plate was read and then all other plates were incubated at 37° C. with 5% CO2 and 95% relative humidity until the end of assay. Cell proliferation and viability assays were performed 72 hours post-treatment depending on cell growth where at least one doubling would have occurred.
(§6) Assessment of viability and proliferation was by measurement of cell ATP content using CellTiter-Glo® Luminescent Cell Viability Assay reagent (Promega) according to the manufacturer's instructions (CellTiter-Glo® Luminescent Cell Viability Assay Technical Bulletin Instructions for Use of Product(s) G7570, G7571, G7572, G7573 Literature #TB288, Revised March 2015), using a microtiter plate reader (Envision, PE).
(§7) Cell proliferation was evaluated using the time zero (T0) signal as the positive control and the within-plate vehicle wells (DMSO) as the negative control. Data was converted to percent inhibition and falls into the range from −100% to 100% of growth where −100% equals a cidal response and 100% equals uninhibited or maximal growth. Cell growth at or near 0% is considered a static response.

[3] = tested on: Panc 05.04 cells (SF3b K700E mutant); assay: as above; assay type: cell-based; settings: for GI50: geometric mean
Method: as §2, §3, §4, §5, §6, §7

SF3b complexes = target: T1, SF3b complexes (Homo sapiens, UniProt O75533+Q7RTV0); assay: Scintillation proximity assay (SPA) with [3H]-labelled pladienolide probe; assay type: binding; settings: SF3B1 (WT); geometric mean; read-out: SPA-ATS GMean IC50 (nM) SF3B1 (WT)
T1 construct: endogenous in cells; host or cells: Nuclear extracts; A HeLa S3 extract preparation is described for the in vitro splicing assay
Method: Scintillation Proximity Assay (SPA) with [^3-H]-Labelled Pladienolide Probe
as §1

[4] = Ad2.1 pre-mRNA substrate, read-out: qPCR-IVS-ATS GMean IC50 (nM) Ad2.1
[5] = Ad2.2 pre-mRNA substrate, read-out: qPCR-IVS-ATS GMean IC50 (nM) Ad2.2
[6] = NCI-H1568, read-out: CTGlo-ATS GMean GI50 (nM) 72 h NCIH1568.1, NCIH1568.1 cells, 72 h
[7] = NCIH1568.1 cells, 72 h, −100% cidal, 0% static, 100% maximal growth
[8] = PANC0504.1 cells, 72 h, −100% cidal, 0% static, 100% maximal growth
[9] = Panc 05.04, read-out: CTGlo-ATS GMean GI50 (nM) 72 h PANC0504.1, PANC0504.1 cells, 72 h
[10] = 72 h, NCIH1568.1, -100% = cidal, 0% = static, 100% = uninhibited growth
[11] = NCI-H1568, 72 h, read-out: CTGlo-ATS GMean GI50 (nM) 72 h NCIH1568.1, 72 h, NCIH1568.1
[12] = Panc 05.04, 72 h, read-out: CTGlo-ATS GMean GI50 (nM) 72 h PANC0504.1, PANC0504.1 cells, 72 h
[13] = 72 h, PANC0504.1, -100% = cidal, 0% = static, 100% = uninhibited growth
[14] = Panc 05.04, 72 h, read-out: CTGlo-ATS GMean GI50 (nM) 72 h PANC0504.1, 72 h, PANC0504.1

Row | Compound | IC50 [1, 4] | IC50 [1, 5] | GI50 [2, 6] | CTGlo-ATS Mean MinResponse % 72 h NCIH1568.1 [2, 7] | CTGlo-ATS Mean MinResponse % 72 h PANC0504.1 [3, 8] | GI50 [3, 9] | IC50 (SF3b complexes) | CTGlo-ATS Mean MinResponse % 72 h NCIH1568.1 [2, 10] | GI50 [2, 11] | GI50 ([2]; NCI-H1568, 72 h, read-out: CTGlo-ATS GMean GI50 (nM) 72 h NCIH1568.1, NCIH1568.1 cells, 72 h) | GI50 [3, 12] | Ratio Ad2.1/2.2 [1] | CTGlo-ATS Mean MinResponse % 72 h PANC0504.1 [3, 13] | GI50 [3, 14]
1 | C/C(=C\c1cc(F)cc(N2CCOCC2)c1)[C@H]1OC(=O)C[C@H](O)CC[C@H](C)[C@@H](OC(=O)N(C)Cc2ccncc2)/C=C/[C@@H]1C [Compound 47] | 16900 nM | 79.6 nM | 66.5 nM | −44.494% | −87.783% | 78.2 nM |  |  |  |  |  |  |  | 
2 | C/C(=C\c1cc(F)cc(N2CCN(C(=O)Cn3cccn3)CC2)c1)[C@H]1OC(=O)C[C@H](O)CC[C@H](C)[C@@H](OC(=O)N2CCC(N(C)C)C2)/C=C/[C@@H]1C (stereo in doubt) [Compound 227, [(2S,3S,4E,6R,7S,10R)-2-[(E)-1-[3-fluoro-5-[4-(2-pyrazol-1-ylacetyl)piperazin-1-yl]phenyl]prop-1-en-2-yl]-10-hydroxy-3,7-dimethyl-12-oxo-1-oxacyclododec-4-en-6-yl] (3S)-3-(dimethylamino)pyrrolidine-1-carboxylate] |  |  |  |  |  |  | 3.25 nM | −81.522% | 2.37 nM |  |  |  |  | 
3 | C/C(=C\c1cc(F)c2nnn(CC3CCOCC3)c2c1)[C@H]1OC(=O)C[C@H](O)CC[C@H](C)[C@@H](OC(=O)N2CCN(C)CC2)/C=C/[C@@H]1C [Compound 148] |  |  | 1.42 nM | −85.010% |  |  | 2.24 nM |  |  |  |  |  |  | 
4 | C/C(=C\c1ccc(S(=O)(=O)NC2CC2)c(F)c1)[C@H]1OC(=O)C[C@H](O)CC[C@H](C)[C@@H](OC(=O)N2CCN(C)CC2)/C=C/[C@@H]1C [Compound 90, [(2S,3S,4E,6R,7S,10R)-2-[(E)-1-[4-(cyclopropylsulfamoyl)-3-fluorophenyl]prop-1-en-2-yl]-10-hydroxy-3,7-dimethyl-12-oxo-1-oxacyclododec-4-en-6-yl] 4-methylpiperazine-1-carboxylate] | > 25000 nM | 168 nM | 107 nM | −8.495% | −12.315% | 141 nM |  |  |  |  |  |  |  | 
5 | C/C(=C\c1cc(F)cc(N2CCC(O)CC2)c1)[C@H]1OC(=O)C[C@H](O)CC[C@H](C)[C@@H](OC(=O)N2CCN(C)CC2)/C=C/[C@@H]1C [Compound 30] | 19.1 nM | 11 nM |  | −78.664% | −75.997% |  |  |  |  | 5.89 nM | 7.02 nM |  |  | 
6 | C/C(=C\c1ccc(F)c(N2CCOCC2)c1)[C@H]1OC(=O)C[C@H](O)CC[C@H](C)[C@@H](OC(=O)N2CCN(C)CC2)/C=C/[C@@H]1C [Compound 8] | 14200 nM | 42.2 nM |  |  | −94.207% |  |  |  |  |  | 19.3 nM |  |  | 
7 | C/C(=C\c1cccc(COC(=O)N2CCCC2CO)c1)[C@H]1OC(=O)C[C@H](O)CC[C@H](C)[C@@H](OC(=O)N2CCN(C)CC2)/C=C/[C@@H]1C (stereo in doubt) [Compound 259, [(2S,3S,4E,6R,7S,10R)-10-hydroxy-2-[(E)-1-[3-[[(2R)-2-(hydroxymethyl)pyrrolidine-1-carbonyl]oxymethyl]phenyl]prop-1-en-2-yl]-3,7-dimethyl-12-oxo-1-oxacyclododec-4-en-6-yl] 4-methylpiperazine-1-carboxylate] | > 25000 nM | 83.1 nM |  |  |  |  |  | −43.329% | 133 nM |  |  | 300.977 | −86.489% | 31.5 nM
8 | C/C(=C\c1cccc(COC(=O)N2CCC(O)CC2)c1)[C@H]1OC(=O)C[C@H](O)CC[C@H](C)[C@@H](OC(=O)N2CCN(C)CC2)/C=C/[C@@H]1C [Compound 261, [(2S,3S,4E,6R,7S,10R)-10-hydroxy-2-[(E)-1-[3-[(4-hydroxypiperidine-1-carbonyl)oxymethyl]phenyl]prop-1-en-2-yl]-3,7-dimethyl-12-oxo-1-oxacyclododec-4-en-6-yl] 4-methylpiperazine-1-carboxylate] | 23300 nM | 76.6 nM |  |  |  |  |  | −36.811% | 57.6 nM |  |  | 304.222 | −89.906% | 32.3 nM
